{
  "source": "patent US9399028B2",
  "about": "“Treatment of drug resistant cancer” (ROCKEFELLER UNIVERSITY (THE), priority 2012, dated 2016)",
  "key": {"[1]": {"test_system": "human melanoma cells (MeWo, MeWo-LM2, HT-144, SK-Mel-2, SK-Mel-334.2)", "assay": "Trans-well matrigel cell invasion assay, melanoma cells", "format": "cell-based", "protocol": "Cancer cells were serum-starved in 0.2% FBS DMEM-based media for 12 hours. Trans-well invasion chambers (354480, BD Biosciences, Bedford, Mass.) were pre-equilibrated prior to beginning the assay by adding 0.5 mL of starvation media to the top and bottom chambers. After 30 minutes, the media in the top chamber was removed, and 0.5 mL of media containing 1×10^5 cancer cells was added into each matrigel-coated trans-well insert and incubated at 37° C. for 24 hours. For neutralization antibody and/or recombinant protein experiments, antibody/recombinant protein was added to each well at the start of the assay at the following concentrations as indicated in the figures: 5-40 μg/mL anti-ApoE 1D7 (Heart Institute, University of Ottawa), 5-40 μg/mL anti-IgG (AB-108-C, R&D Systems, Minneapolis, Minn.), 100 μM recombinant human ApoE3 (4696, BioVision, Mountain View, Calif.), and 100 μM BSA (A2153, Sigma-Aldrich). Upon completion of the assay, matrigel-coated inserts were washed with PBS, the cells at the top side of each insert were scraped off, and the inserts were fixed in 4% paraformaldehyde for 15 minutes. The inserts were then cut out and mounted onto slides using VectaShield mounting medium containing DAPI (H-1000, Vector Laboratories, Burlingame, Calif.). The basal side of each insert was imaged using an inverted fluorescence microscope (Zeiss Axiovert 40 CFL) at 5× magnification, taking three representative images for each insert. The number of invaded cells was quantified using ImageJ (NIH).\nThe cell invasion assay was performed as previously described in detail (Pencheva et al., 2012) using a trans-well matrigel invasion chamber system (354480, BD Biosciences). In brief, various melanoma cells were cultured in the presence of DMSO, GW3965, T0901317, or Bexarotene at 1 μM for 56 hours, after which melanoma cells were switched to starvation media (0.2% FBS) for 16 hours in the presence of each drug. Following starvation, cells were seeded into matrigel-coated trans-well inserts, and the invasion assay was allowed to proceed for 24 hours at 37° C. For ApoE antibody neutralization experiments, 40 μg/mL 1D7 anti-ApoE blocking antibody (Heart Institute, University of Ottawa, Ottawa, Canada) or 40p, g/mL anti-IgG control antibody (AB-108-C, R&D Systems, Minneapolis, Minn.) was added to each trans-well insert at the start of the assay.\nThe cells were then serum starved for 16 hours in 0.2% FBS media in the presence of each corresponding drug or DMSO. […] Meanwhile, cancer cells were trypsinized and viable cells were counted using trypan blue. […] The basal side of each insert was imaged using an inverted fluorescence microscope (Zeiss Axiovert 40 CFL) at 5× magnification, and the number of DAPI-positive cells was quantified using ImageJ."}, "[2]": {"test_system": "HUVEC recruited by human melanoma cells", "assay": "Trans-well endothelial recruitment assay", "format": "cell-based", "conditions": "for ability of melanoma cells to recruit endothelial cells: MeWo, HT-144, SK-Mel-2, SK-Mel-334.2, 1 μM for 72 hours", "protocol": "5×10^4 cancer cells were seeded into 24-well plates approximately 24 hours prior to the start of the assay. HUVEC's were grown to 80% confluency and serum starved in EGM-2 media supplemented with 0.2% FBS for 16 hours. HUVEC's were then pulsed with Cell Tracker Red CMTPX dye (C34552, Invitrogen) for 45 minutes. Meanwhile, cancer cells were washed with PBS, 0.5 mL of 0.2% FBS EGM-2 media was added to each well, and a 3.0 μm HTS Fluoroblock insert (351151, BD Falcon, San Jose, Calif.) was placed into each well. 1×10^5 HUVEC's, resuspended in 0.5 mL of starvation media, were seeded into each trans-well insert, and the recruitment assay was allowed to proceed for 16-18 hours at 37° C. For neutralization antibody and/or recombinant protein experiments, antibody/protein was then added to each well at the appropriate concentration as indicated in the figures: 40 μg/mL anti-ApoE 1D7, 40 μg/mL anti-IgG, 100 μM rhApoE3, and 100 μM BSA. Upon completion of the assay, the inserts were processed and analyzed as described for the matrigel invasion assay above (See Matrigel Invasion Assay).\nThe endothelial recruitment assay was carried out as previously described (Pencheva et al., 2012; Png et al., 2012). Melanoma cells were treated with DMSO, GW3965, T0901317, or Bexarotene at 1 μM for 56 hours, after which 5×10^4 cells were seeded in a 24-well plate in the presence of each drug and allowed to attach for 16 hours prior to starting the assay. HUVEC cells were serum-starved overnight in EGM-2 media containing 0.2% FBS. The following day, 1×10^5 HUVEC cells were seeded into a 3.0 μm HTS Fluoroblock trans-well migration insert (351151, BD Falcon, San Jose, Calif.) fitted into each well containing cancer cells at the bottom. The HUVEC cells were allowed to migrate towards the cancer cells for 20 hours at 37° C., after which the inserts were processed as previously described (Pencheva et al., 2012). For ApoE antibody neutralization experiments, 40 μg/mL 1D7 anti-ApoE blocking antibody (Heart Institute, University of Ottawa, Ottawa, Canada) or 40 μg/mL anti-IgG control antibody (AB-108-C, R&D Systems, Minneapolis, Minn.) was added to each trans-well insert at the start of the assay.\nSubsequently, 5×10^4 cancer cells were seeded into 24-well plates in the presence of each drug or DMSO and allowed to attach for 16 hours prior to starting the assay. Human umbilical vein endothelial cells (HUVEC cells) were serum-starved in 0.2% FBS-containing media overnight. The following day, 1×10^5 HUVEC cells were seeded into a 3.0 μm HTS Fluoroblock insert (351151, BD Falcon) fitted into each well containing the cancer cells at the bottom. The HUVEC cells were allowed to migrate towards the cancer cells for 20 hours, after which the inserts were washed in PBS, fixed in 4% PFA, labeled with DAPI, and mounted on slides. The basal side of each insert was imaged using an inverted fluorescence microscope (Zeiss Axiovert 40 CFL) at 5× magnification, and the number of DAPI-positive cells was quantified using ImageJ."}, "[3]": {"conditions": "parental MeWo cells pre-treated 48 hours"}, "[4]": {"conditions": "recombinant ApoE3 100 μM in cell media"}},
  "note": "Counter-ions that a name gives are not always drawn.",
  "data": [
    {"molecule": "O=C(O)Cc1cccc(OCCCN(Cc2cccc(C(F)(F)F)c2Cl)CC(c2ccccc2)c2ccccc2)c1", "note": "[GW3965 2, 3-[3-[N-(2-Chloro-3-trifluoromethylbenzyl)-(2,2-diphenylethyl)amino]propyloxy]phenylacetic acid hydrochloride]", "values": [
      {"measurement": "tumor cell invasion", "setting": "[1]; [3]", "result": "decreased"},
      {"measurement": "ability of melanoma cells to recruit endothelial cells", "setting": "[2]", "result": "consistently suppressed"},
      {"measurement": "endothelial recruitment", "setting": "[2]; [3]", "result": "decreased"}
    ]},
    {"molecule": "CC(CCOc1cccc(CC(=O)O)c1)N(Cc1cccc(C(F)(F)F)c1Cl)CC(c1ccccc1)c1ccccc1", "note": "(centres unmarked) [SB742881 25]", "values": [
      {"measurement": "inhibition of cancer progression phenotypes (cell invasion, endothelial recruitment)", "setting": "[1]; MeWo cells, 1 μM for 72 hours, compared with lower potency LXR agonists", "result": "more effective"}
    ]},
    {"molecule": "O=S(=O)(c1ccccc1)N(CC(F)(F)F)c1ccc(C(O)(C(F)(F)F)C(F)(F)F)cc1", "note": "[T0901317 1]", "values": [
      {"measurement": "ability of melanoma cells to recruit endothelial cells", "setting": "[2]", "result": "consistently suppressed"}
    ]},
    {"molecule": "recombinant human ApoE3: recombinant human ApoE3 (4696, BioVision)", "values": [
      {"measurement": "invasion by metastatic LM2 cells", "setting": "[1]; [4]", "result": "significantly suppressed"},
      {"measurement": "ability of endothelial cells to migrate towards highly metastatic cancer cells", "setting": "[2]; endothelial cells pre-treated 24 hours, 100 μM", "result": "significantly reduced"},
      {"measurement": "endothelial recruitment by metastatic LM2 cells", "setting": "[2]; [4]", "result": "significantly suppressed"}
    ]}
  ]
}
